# Results published in patent US20250326748A1, “COMPOUNDS AND METHODS FOR MODULATING SPLICING” (REMIX THERAPEUTICS INC., priority 2022, published 2025).
# Key:
# SMN2 mRNA = experiment: Splicing RT-qPCR panel, SMN2 canonical junction (CJ) mRNA; format: cell-based, human; details: Homo sapiens, read-out: SMN2 CJ (decrease in CJ mRNA levels, IC50)
# Summary of the method: (§1)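 A673 cells (DMEM, 10% FBS) or K562 cells (IMDM, 10% FBS) treated 24 h at 37 °C with an 11-point 3-fold dilution, top 10 uM, DMSO ≤0.25%. Canonical-junction mRNA quantified in lysates by RT-qPCR, normalised to GAPDH, GUSB or PPIA and to DMSO (2^−ΔΔCt), then converted to % response.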
# Target C mRNA = experiment: Splicing RT-qPCR panel, Target C canonical junction (CJ) mRNA; format: cell-based, human; details: Homo sapiens, read-out: Target C CJ (decrease in CJ mRNA levels, IC50)
# Summary of the method: as §1
# HiBiT-tagged MYB protein = experiment: HiBiT protein abundance assay, MYB (K562 HiBiT knock-in); format: cell-based, human; details: HiBiT knock-in cells, 24 hours
# Summary of the method: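 Endogenously HiBiT-tagged K562 knock-in lines treated 24 h at 37 °C with 10-point 3-fold dilutions (top 10 μM final, DMSO ≤0.25%) in IMDM+1% FBS. Lytic Nano-Glo luminescence normalized to DMSO and unmodified K562 controls; four-parameter fit gives 50%-abundance concentration (IC50).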
# Target C = experiment: HiBiT protein abundance assay, Target C (K562 HiBiT knock-in); format: cell-based, human; details: HiBiT knock-in cells, 24 hours
# Summary of the method: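 K562 HiBiT knock-in cells (10000/well) in IMDM + 1% FBS were treated for 24 h at 37° C. with a 10-point 3-fold dilution series (top 10 μM final), with DMSO ≤0.25%. Unmodified K562 served as baseline. HiBiT lytic luminescence was normalized to controls, and IC50 was interpolated at 50% from a four-parameter fit.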
# K562 cells = experiment: Cell viability, Cell Titer Glo 2.0 assay, K562; details: 72 hours
IC50 (SMN2 mRNA) [µM],IC50 (Target C mRNA) [µM],IC50 (HiBiT-tagged MYB protein) [µM],IC50 (Target C) [µM],Compound,"Effect on Cell Viability, K562 (K562 cells)"
< 0.1,0.1 to 1,< 0.1,< 0.1,"Cn1cc2cc(-c3cnc4cc(N5CC[C@H](NC6CC6)C5)ccc4n3)c(O)c(F)c2n1 [Compound 176, 5-[6-[(3S)-3-(cyclopropylamino)318quinoxaline-1-yl]318quinoxaline-2-yl]-7-fluoro-2-methyl-indazol-6-ol]",A (<100 nM)
< 0.1,1 to 10,< 0.1,1 to 10,C[C@@H]1CN(c2cnc3nc(-c4cc5cn(C)nc5cc4O)cc(Cl)c3c2)C[C@H](C)N1 [Compound 208],B (100-1000 nM)
